Non-standard residues stand in square brackets, D forms with d. Residues, ends and D or L forms follow the SMILES beside them. Phe(4-NH2) = Nc1ccc(C[C@H](N)C(=O)O)cc1
Target: T1, Angiotensin II receptor (AT-1) type-1 (Rattus norvegicus, UniProt P29089+P25095)
T1 sequence (P29089 whole entry): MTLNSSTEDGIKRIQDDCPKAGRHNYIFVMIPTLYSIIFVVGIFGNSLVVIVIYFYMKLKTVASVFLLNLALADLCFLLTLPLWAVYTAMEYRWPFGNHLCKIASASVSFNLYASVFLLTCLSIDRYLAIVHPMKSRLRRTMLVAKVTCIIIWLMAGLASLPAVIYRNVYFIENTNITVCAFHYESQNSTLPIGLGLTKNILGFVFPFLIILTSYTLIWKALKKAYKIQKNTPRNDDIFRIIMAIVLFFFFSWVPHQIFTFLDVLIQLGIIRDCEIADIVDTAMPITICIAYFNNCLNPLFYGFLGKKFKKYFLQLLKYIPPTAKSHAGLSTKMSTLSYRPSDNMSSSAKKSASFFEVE
T1 sequence (P25095 whole entry): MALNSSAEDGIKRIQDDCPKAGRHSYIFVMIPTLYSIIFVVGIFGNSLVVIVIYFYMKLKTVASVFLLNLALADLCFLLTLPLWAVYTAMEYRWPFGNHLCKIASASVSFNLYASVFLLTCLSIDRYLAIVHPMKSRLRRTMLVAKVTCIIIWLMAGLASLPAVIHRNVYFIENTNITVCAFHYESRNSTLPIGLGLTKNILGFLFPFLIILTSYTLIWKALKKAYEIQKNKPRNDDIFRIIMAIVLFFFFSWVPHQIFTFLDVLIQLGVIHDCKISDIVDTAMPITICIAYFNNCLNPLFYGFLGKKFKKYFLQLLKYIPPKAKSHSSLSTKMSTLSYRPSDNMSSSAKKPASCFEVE
Assay: Displacement of [125I]Ang2 from AT1 receptor in rat liver membrane
Assay type: cell membranes

Compound | Ki [µM]
CC[C@@H](C)[C@H](NC(=O)c1cccc(Cc2cnc[nH]2)c1)C(=O)O | > 10
CC[C@H](C)[C@H](NC(=O)[C@@H]1CCCN1C(=O)[C@H](Cc1cnc[nH]1)NC(C)=O)C(=O)O (Ac-His-Pro-Ile-OH) | > 10
O=C(N[C@@H](Cc1ccccc1)C(=O)O)c1cccc(Cc2cnc[nH]2)c1 | > 10
CC[C@H](C)[C@H](NC(=O)[C@H](Cc1ccc(O)cc1)NC(=O)[C@@H](NC(=O)[C@H](CCCNC(=N)N)NC(=O)[C@@H](N)CC(=O)O)C(C)C)C(=O)N[C@@H](Cc1ccc(N)cc1)C(=O)N1CCC[C@H]1C(=O)N[C@@H](Cc1ccccc1)C(=O)O (H-DRVYI[Phe(4-NH2)]PF-OH) | > 10
O=C(O)[C@H](Cc1ccccc1)NC(=O)[C@@H]1CCCN1C(=O)c1cccc(Cc2cnc[nH]2)c1 | > 10
CC[C@@H](C)[C@H](NC(=O)[C@@H]1CCCN1C(=O)c1cccc(Cn2ccnc2)c1)C(=O)O | > 10
N[C@@H](Cc1cnc[nH]1)C(=O)N1CCC[C@H]1C(=O)N[C@@H](Cc1ccccc1)C(=O)O (H-His-Pro-Phe-OH) | 1.598
O=C(O)[C@H](Cc1ccccc1)NC(=O)[C@@H]1CCCN1C(=O)c1cccc(Cn2ccnc2)c1 | > 10
CC[C@@H](C)[C@H](NC(=O)[C@@H]1CCCN1C(=O)c1cccc(Cc2cnc[nH]2)c1)C(=O)O | > 10
CC[C@@H](C)[C@H](NC(=O)c1cccc(Cn2ccnc2)c1)C(=O)O | > 10
CC[C@H](C)[C@H](NC(=O)[C@@H]1CCCN1C(=O)[C@@H](N)Cc1cnc[nH]1)C(=O)O (H-His-Pro-Ile-OH) | > 10
O=C(N[C@@H](Cc1ccccc1)C(=O)O)c1cccc(Cn2ccnc2)c1 | > 10
CC(=O)N[C@@H](Cc1cnc[nH]1)C(=O)N1CCC[C@H]1C(=O)N[C@@H](Cc1ccccc1)C(=O)O (Ac-His-Pro-Phe-OH) | > 10
